From patent publication US7879825B2, “Derivatives of [2-(8,9-dioxo-2,6-diazabicyclo[5.2.0]non-1(7)-en-2-yl)alkyl] phosphonic acid and methods of use thereof” (Wyeth LLC, priority 2003, dated 2011)
Marks after values point to notes of the source that are not given here.

How the values were obtained:
[1] = system: PGE2-induced thermal hypersensitivity; assay: Reversal of prostaglandin E2 (PGE2)-induced thermal hypersensitivity, warm-water tail withdrawal; format: in vivo, Sprague-Dawley rats; details: single oral (PO) dose before PGE2 injection into tail, assessed 30 min after PGE2, SEM in parentheses
Procedure: The compounds of the present invention were evaluated for their effectiveness to treat pain. […] The test methods used herein have been used by others skilled in the art to evaluate the effectiveness of compounds for relieving pain. See e.g., Bennett G J and Xie T K, A peripheral mononeuropathy in rat produces disorders of pain sensation like those seen in man, Pain 33: 87-107 (1988); Chaplan S R, Bach […], Chung J M and Yaksh T L, Quantitative assessment of tactile allodynia in the rat paw, J. Neurosci. Methods 53: 55-63 (1994); and Mosconi T and Kruger L, Fixed-diameter polyethylene cuffs applied to the rat sciatic nerve induce a painful neuropathy: ultrastructural morphometric analysis of axonal alterations Pain 64: 37-57 (1996). Individually housed Sprague-Dawley rats had free access to rat chow and water. A 12-h light/12-h dark cycle was in effect (lights on from 6:00 am to 6:00 pm). Animal maintenance and research were conducted in accordance with the guidelines provided by the National Institutes of Health Committee on Laboratory Animal Resources. These subjects were used in the tests below. The terminal 10 cm of the tail was placed into a thermos bottle containing water warmed to 38, 42, 46, 50 or 54° C. The latency in seconds for the animal to remove the tail from the water was used as a measure of nociception. […] Temperature-effect curves were generated before (baseline) and 30 minutes after the PGE2 injection. […] The ability of compounds to reverse PGE2-induced thermal hypersensitivity was assessed using a single dose time-course procedure. […] sensitivity was assessed 30 min after PGE2 injection. Data Analysis-The temperature that produced a half-maximal increase in the tail-withdrawal latency (i.e., T10) was calculated from each temperature-effect curve. The T10 was determined by interpolation from a line drawn between the point above and the point below 10 sec on the temperature-effect curve.

Compound	Reversal of PGE2-induced thermal hypersensitivity, % MPE (±1 SEM) ([1]; 30 mg/kg)	melting point [°C]	Reversal of PGE2-induced thermal hypersensitivity, % MPE (±1 SEM) ([1]; 10 mg/kg)
O=C(OCOP(=O)(CCN1CCCNc2c1c(=O)c2=O)OCOC(=O)C1CCCCC1)C1CCCCC1 [Example 6, 7-Cyclohexyl-3-{2-[8,9-dioxo-2,6-diazabicyclo[5.2.0]non-1(7)-en-2-yl]ethyl}-3-oxido-7-oxo-2,4,6-trioxa-3-phosphahept-1-yl cyclohexanecarboxylate]	16.8 (6.8) % MPE	64 to 65	–
O=C(OCOP(=O)(CCN1CCCNc2c1c(=O)c2=O)OCOC(=O)c1ccccc1)c1ccccc1 [Example 1, 3-{2-[8,9-Dioxo-2,6-diazabicyclo[5.2.0]non-1(7)-en-2-yl]ethyl}-3-oxido-7-oxo-7-phenyl-2,4,6-trioxa-3-phosphahept-1-yl benzoate]	81 (3.4) % MPE	–	57.2 (4.7) % MPE
CC(OC(=O)C1CCCCC1)OP(=O)(CCN1CCCNc2c1c(=O)c2=O)OC(C)OC(=O)C1CCCCC1 (stereo not shown) [Example 4, 7-Cyclohexyl-3-{2-[8,9-dioxo-2,6-diazabicyclo[5.2.0]non-1(7)-en-2-yl]ethyl}-1,5-dimethyl-3-oxido-7-oxo-2,4,6-trioxa-3-phosphahept-1-yl cyclohexanecarboxylate]	78.9 (5.8) % MPE	–	–
CC(C)OC(=O)OCOP(=O)(CCN1CCCNc2c1c(=O)c2=O)OCOC(=O)OC(C)C [Example 7, [2-(8,9-Dioxo-2,6-diaza-bicyclo[5.2.0]non-1-(7)-en-2-yl)-ethyl]-phosphonic acid diiso propoxycarbonyloxymethyl ester]	77.5 (6.7) % MPE	–	47.0 (12.6) % MPE
CCCC(CCC)C(=O)OCOP(=O)(CCN1CCCNc2c1c(=O)c2=O)OCOC(=O)C(CCC)CCC [Example 2, 3-{2-[8,9-Dioxo-2,6-diazabicyclo[5.2.0]non-1(7)-en-2-yl]ethyl}-3-oxido-7-oxo-8-propyl-2,4,6-trioxa-3-Phosphaundec-1-yl 2-propylpentanoate]	76.5 (3.3) % MPE	–	45.6 (13.9) % MPE
CC(C)(C)C(=O)OCOC(CCN1CCCNc2c1c(=O)c2=O)(O[PH2]=O)OC(=O)C(C)(C)C (stereo not shown) [Example 3, 2,2-Dimethyl-propionic acid (2,2-dimethyl-propionyloxymethoxy)-[2-(8,9-dioxo-2,6-diaza-bicyclo[5.2.0]non-1(7)-en-2-yl)-ethyl]-phosphinoyloxymethyl ester]	87.6 (3.3) % MPE	–	–
CC(OC(=O)C1CCCCC1)OP(=O)(CCN1CCCNc2c1c(=O)c2=O)OC(C)OC(=O)C1CCCCC1 (stereo not shown) [Example 5, 7-cyclohexyl-3-{2-[8,9-dioxo-2,6-diazabicyclo[5.2.0]non-1(7)-en-2-yl]ethyl}-1,5-dimethyl-3-oxido-7-oxo-2,4,6-trioxa-3-phosphahept-1-yl cyclohexanecarboxylate]	55.9 (9.8) % MPE	–	–
O=c1c2c(c1=O)N(CCP(=O)(O)O)CCCN2 [Comparative 1, [2-(8,9-dioxo-2,6-diazabicyclo[5.2.0]non-1(7)-en-2-yl)ethyl]phosphonic acid, reference compound]	44 (9.5) % MPE	–	−4.7 (10.6)** % MPE
